Measured values published in patent US20240294499A1, “TARGETED PROTEIN DEGRADATION USING BIFUNCTIONAL COMPOUNDS THAT BIND UBIQUITIN LIGASE AND TARGET MCL-1 PROTEIN” (Captor Therapeutics S.A., priority 2021, published 2024).

How the values were obtained:
[1] = biological target: T1, [MCL-1]-[compound of formula (I)]-[CRBN/DDB1] complex (Homo sapiens, UniProt Q07820+Q96SW2); assay: HTRF ternary complex assay; type: binding; conditions: ternary complex formation; for EC50: read-out: HTRF ternary complex Average pEC50 by molecule (converted)
T1 sequence (Q07820 whole entry): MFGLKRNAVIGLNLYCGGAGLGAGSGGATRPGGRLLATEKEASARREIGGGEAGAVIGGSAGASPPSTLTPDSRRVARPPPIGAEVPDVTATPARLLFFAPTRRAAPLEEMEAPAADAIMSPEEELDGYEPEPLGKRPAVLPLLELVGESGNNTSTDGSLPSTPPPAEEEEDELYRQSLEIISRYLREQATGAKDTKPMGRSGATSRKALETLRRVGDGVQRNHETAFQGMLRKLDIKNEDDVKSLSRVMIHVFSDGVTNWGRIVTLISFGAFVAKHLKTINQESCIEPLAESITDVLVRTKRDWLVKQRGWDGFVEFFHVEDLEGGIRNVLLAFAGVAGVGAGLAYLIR
T1 sequence (Q96SW2 whole entry): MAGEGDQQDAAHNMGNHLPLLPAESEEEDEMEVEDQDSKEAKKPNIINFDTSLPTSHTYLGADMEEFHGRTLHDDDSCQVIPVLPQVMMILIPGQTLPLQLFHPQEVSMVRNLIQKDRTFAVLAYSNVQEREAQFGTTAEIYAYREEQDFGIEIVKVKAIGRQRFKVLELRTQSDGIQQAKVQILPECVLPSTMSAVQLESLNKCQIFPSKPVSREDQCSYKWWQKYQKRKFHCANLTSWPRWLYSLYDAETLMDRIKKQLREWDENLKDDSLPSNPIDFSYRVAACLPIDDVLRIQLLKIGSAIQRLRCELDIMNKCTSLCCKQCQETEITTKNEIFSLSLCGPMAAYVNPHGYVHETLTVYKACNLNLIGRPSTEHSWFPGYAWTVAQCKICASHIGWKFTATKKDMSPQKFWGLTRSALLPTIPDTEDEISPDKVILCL
T1 sequence (Q16531 whole entry partner): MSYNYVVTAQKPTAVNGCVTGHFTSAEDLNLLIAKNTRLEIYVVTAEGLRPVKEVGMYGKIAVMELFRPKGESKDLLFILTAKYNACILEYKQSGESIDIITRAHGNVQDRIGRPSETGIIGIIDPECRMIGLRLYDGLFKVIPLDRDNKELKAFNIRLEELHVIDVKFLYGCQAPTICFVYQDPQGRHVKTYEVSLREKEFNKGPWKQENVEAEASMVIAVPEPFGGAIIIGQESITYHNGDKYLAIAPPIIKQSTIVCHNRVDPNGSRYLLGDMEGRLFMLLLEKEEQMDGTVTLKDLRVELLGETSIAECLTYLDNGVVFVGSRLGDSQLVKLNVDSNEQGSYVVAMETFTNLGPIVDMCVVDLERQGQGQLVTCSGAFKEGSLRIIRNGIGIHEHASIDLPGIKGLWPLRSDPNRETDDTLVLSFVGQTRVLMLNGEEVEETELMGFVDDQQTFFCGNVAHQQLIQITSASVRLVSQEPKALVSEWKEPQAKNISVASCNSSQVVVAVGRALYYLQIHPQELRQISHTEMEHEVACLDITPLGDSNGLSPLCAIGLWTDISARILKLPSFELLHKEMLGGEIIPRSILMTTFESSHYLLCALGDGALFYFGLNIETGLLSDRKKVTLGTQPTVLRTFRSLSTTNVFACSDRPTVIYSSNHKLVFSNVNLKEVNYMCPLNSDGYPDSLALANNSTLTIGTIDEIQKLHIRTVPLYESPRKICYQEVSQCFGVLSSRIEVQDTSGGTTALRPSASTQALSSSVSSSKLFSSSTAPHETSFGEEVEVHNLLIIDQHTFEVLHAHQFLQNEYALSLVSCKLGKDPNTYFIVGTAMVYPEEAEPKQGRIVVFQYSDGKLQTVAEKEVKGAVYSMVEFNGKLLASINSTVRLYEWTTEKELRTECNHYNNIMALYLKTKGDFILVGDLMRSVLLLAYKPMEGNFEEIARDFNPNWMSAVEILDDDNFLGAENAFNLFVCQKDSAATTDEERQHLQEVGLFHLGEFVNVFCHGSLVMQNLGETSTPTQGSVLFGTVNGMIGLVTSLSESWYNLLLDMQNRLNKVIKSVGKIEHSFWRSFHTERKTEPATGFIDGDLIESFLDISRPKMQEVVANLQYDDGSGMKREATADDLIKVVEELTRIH
Procedure: The effect of the bifunctional compounds of the invention on the formation of a ternary complex composed of [MCL-1]-[compound of formula (I)]-[CRBN/DDB1] was investigated.
Mix of protein solution were prepared: • 48 nM hMcl-1 and 105.6 nM CRBN was prepared in PPI Europium detection buffer with 2 mM DTT. • Acceptor and donor stock solutions were diluted 100 times in PPI Europium detection buffer. Equal volumes of both reagents were mixed. Finally giving 3 nM of Streptavidin-Eu cryptate […] and 6.67 nM of Anti-6× his-d2 […].
5 μl of protein mix was dispensed to all wells. The tested compounds in dose-response were dispensed onto a white 384-well low volume plate (Greiner, 784075). DMSO was backfilled to all wells, resulting in a final DMSO content of 0.5%. Wells containing only DMSO served as background. Next, 5 μl of solution with donor and acceptor was added to the wells.
The plate was sealed with transparent film and shaken using a VibroTurbulator for 60 see at level 3. The plate was then spun down shortly (10 s, 1000 rcf) and incubated at 25° C. for 180 min.
The read-out was performed with plate reader (Pherastar, BMG Labtech) in time resolved fluorescence mode. Filterset: TR 337 665 620.
The results were analyzed as follows: • 1) an average of fluorescence for background signal was calculated and used as a negative control; • 2) raw fluorescence values for tested compounds were normalized against negative controls; • 3) bell shape curve was fitted to a gaussian distribution using a non-linear least squares Gauss-Newton algorithm; • 4) EC50 and pEC50 values were determined.

ARH-77 cells = assay: Cell viability assay (CellTiter-Glo), ARH-77; type: cell-based; conditions: 1% FBS; for IC50: Homo sapiens, ARH-77, 24 hours incubation, read-out: Average pIC50 by molecule ARH-77 (converted)
How it was run: (§1)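 OPM-2, MV-4-11 and ARH-77 cells were grown in medium with 1% FBS and treated with compound in 1/3 dilutions from 30 uM (9–12 points, 0.5% DMSO). Viability was read by CellTiter-Glo luminescence after 24 hours and normalized to DMSO control.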

MV-4-11 cells = assay: Cell viability assay (CellTiter-Glo), MV-4-11; type: cell-based; conditions: 1% FBS; for IC50: Homo sapiens, MV4-11, 24 hours incubation, read-out: Average pIC50 by molecule MV-4-11 (converted)
How it was run: as §1

[2] = biological target: T1, [MCL-1]-[compound of formula (I)]-[CRBN/DDB1] complex; assay: AlphaLISA dose response ternary complex formation assay; type: binding; conditions: for EC50: read-out: AlphaLISA dose response Average pEC50 by molecule (converted)
How it was run: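 EC50 comes from dose–response of AlphaLISA luminescence (excitation 680, emission 615 nm), normalised between DMSO background and an internal positive control, with concentrations past the hook point dropped. Ternary complex formed by mixing bead-bound biotin-hMCL-1 and His-CRBN/DDB1 (protein solutions 40 and 200 nM) with compound in 2% DMSO, 30 min, 25 °C.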

SMILES	HTRF ternary complex Average pEC50 by molecule [1]	Average pIC50 by molecule MV-4-11 (MV-4-11 cells; 24 hours incubation)	AlphaLISA dose response Average pEC50 by molecule [2]	EC50 [1]	IC50 (MV-4-11 cells)	EC50 [2]	Average pIC50 by molecule ARH-77 (ARH-77 cells; 24 hours incubation)	IC50 (ARH-77 cells)
Cc1nn(C)c(C)c1-c1c(Cl)ccc2c(CCCOc3cccc4cc(F)ccc34)c(C(=O)O)n(CCN3CCN(C(=O)COc4cccc5c4CN(C4CCC(=O)NC4=O)C5=O)CC3)c12 (atropisomer, axis not shown; (Sa)) [Compound 295, (Sa)-6-Chloro-1-(2-(4-(2-((2-(2,6-dioxopiperidin-3-yl)-1-oxoisoindolin-4-yl)oxy)acetyl)piperazin-1-yl)ethyl)-3-(3-((6-fluoronaphthalen-1-yl)oxy)propyl)-7-(1,3,5-trimethyl-1H-pyrazol-4-yl)-1H-indole-2-carboxylic acid]	>7	≥7.5	>7				<5.0	
Cc1nn(C)c(C)c1-c1c(Cl)ccc2c(CCCOc3cccc4ccccc34)c(C(=O)O)n(CCN3CCC(NC(=O)COc4cccc5c4CN(C4CCC(=O)NC4=O)C5=O)CC3)c12 (stereo not shown) [Compound 221, 6-chloro-1-{2-[4-(2-{[2-(2,6-dioxopiperidin-3-yl)-1-oxo-2,3-dihydro-1H-isoindol-4-yl]oxy}acetamido)piperidin-1-yl]ethyl}-3-[3-(naphthalen-1-yloxy)propyl]-7-(1,3,5-trimethyl-1H-pyrazol-4-yl)-1H-indole-2-carboxylic acid]				< 100 nM	≤ 10000 nM	< 100 nM		> 31600 nM
Cc1nn(C)c(C)c1-c1c(Cl)ccc2c(CCCOc3cccc4cc(F)ccc34)c(C(=O)O)n(CCN3CCN(C(=O)Cn4c(C)nc5c(C(=O)NC6CCC(=O)NC6=O)ccc(C)c54)CC3)c12 (stereo not shown) [Compound 270, 6-Chloro-1-{2-[4-(2-{4-[(2,6-dioxopiperidin-3-yl)carbamoyl]-2,7-dimethyl-1H-1,3-benzodiazol-1-yl}acetyl)piperazin-1-yl]ethyl}-3-{3-[(6-fluoronaphthalen-1-yl)oxy]propyl}-7-(1,3,5-trimethyl-1H-pyrazol-4-yl)-1H-indole-2-carboxylic acid]				< 10 nM	≤ 100 nM	< 100 nM		> 10000 nM
Cc1nn(C)c(C)c1-c1c(Cl)ccc2c(CCCOc3cccc4cc(F)ccc34)c(C(=O)O)n(CCCOCCn3c(C)nc4c(C(=O)NC5CCC(=O)NC5=O)cccc43)c12 (stereo not shown) [Compound 280, 6-Chloro-1-[3-(2-{4-[(2,6-dioxopiperidin-3-yl)carbamoyl]-2-methyl-1H-1,3-benzodiazol-1-yl}ethoxy)propyl]-3-{3-[(6-fluoronaphthalen-1-yl)oxy]propyl}-7-(1,3,5-trimethyl-1H-pyrazol-4-yl)-1H-indole-2-carboxylic acid]				< 10 nM	≤ 100 nM	< 10 nM		> 3160 nM
Cc1nn(C)c(C)c1-c1c(Cl)ccc2c(CCCOc3cccc4cc(F)ccc34)c(C(=O)O)n(CCCNC(=O)Cn3c(C)nc4c(C(=O)NC5CCC(=O)NC5=O)cccc43)c12 (stereo not shown) [Compound 281, 6-Chloro-1-[3-(2-{4-[(2,6-dioxopiperidin-3-yl)carbamoyl]-2-methyl-1H-1,3-benzodiazol-1-yl}acetamido)propyl]-3-{3-[(6-fluoronaphthalen-1-yl)oxy]propyl}-7-(1,3,5-trimethyl-1H-pyrazol-4-yl)-1H-indole-2-carboxylic acid]				< 10 nM	≤ 100 nM	< 100 nM		> 10000 nM
Cc1nn(C)c(C)c1-c1c(Cl)ccc2c(CCCOc3cccc4cc(F)ccc34)c(C(=O)O)n(CCN3CCC4CN(C(=O)COc5cccc6c5CN(C5CCC(=O)NC5=O)C6=O)CC43)c12 (stereo not shown) [Compound 301, 6-Chloro-1-{2-[5-(2-{[2-(2,6-dioxopiperidin-3-yl)-1-oxo-2,3-dihydro-1H-isoindol-4-yl]oxy}acetyl)-octahydropyrrolo[2,3-c]pyrrol-1-yl]ethyl}-3-{3-[(6-fluoronaphthalen-1-yl)oxy]propyl}-7-(1,3,5-trimethyl-1H-pyrazol-4-yl)-1H-indole-2-carboxylic acid]				< 10 nM	≤ 100 nM	< 10 nM		> 10000 nM
Cc1nn(C)c(C)c1-c1c(Cl)ccc2c(CCCOc3cccc4cc(F)ccc34)c(C(=O)O)n(CCN3CCC(Nc4cccc5c4C(=O)N(C4CCC(=O)NC4=O)C5=O)CC3)c12 (stereo not shown) [Compound 308]				< 100 nM	≤ 316 nM	< 100 nM		> 3160 nM
Cc1nn(C)c(C)c1-c1c(Cl)ccc2c(CCCOc3cccc4cc(F)ccc34)c(C(=O)O)n(CCN3CCN(CCOc4cccc5c4C(=O)N(C4CCC(=O)NC4=O)C5=O)CC3)c12 (stereo not shown) [Compound 321, 6-Chloro-1-(2-(4-(2-((2-(2,6-dioxopiperidin-3-yl)-1,3-dioxoisoindolin-4-yl)oxy)ethyl)piperazin-1-yl)ethyl)-3-(3-((6-fluoronaphthalen-1-yl)oxy)propyl)-7-(1,3,5-trimethyl-1H-pyrazol-4-yl)-1H-indole-2-carboxylic acid]				< 100 nM	≤ 316 nM	< 10 nM		> 10000 nM
Cc1nn(C)c(C)c1-c1c(Cl)ccc2c(CCCOc3cccc4cc(F)ccc34)c(C(=O)O)n(CCCCN(C)C(=O)COc3cccc4c3CN(C3CCC(=O)NC3=O)C4=O)c12 (stereo not shown) [Compound 326, 6-chloro-1-[4-(2-{[2-(2,6-dioxopiperidin-3-yl)-1-oxo-2,3-dihydro-1H-isoindol-4-yl]oxy}-N-methylacetamido)butyl]-3-{3-[(6-fluoronaphthalen-1-yl)oxy]propyl}-7-(1,3,5-trimethyl-1H-pyrazol-4-yl)-1H-indole-2-carboxylic acid]				< 10 nM	≤ 316 nM	< 100 nM		> 10000 nM

Now from value to molecule, other results behind:

HTRF ternary complex Average pEC50 by molecule [1]	Average pIC50 by molecule MV-4-11 (MV-4-11 cells; 24 hours incubation)	AlphaLISA dose response Average pEC50 by molecule [2]	EC50 [1]	IC50 (MV-4-11 cells)	EC50 [2]	SMILES	Average pIC50 by molecule ARH-77 (ARH-77 cells; 24 hours incubation)	IC50 (ARH-77 cells)
			< 10 nM	≤ 100 nM	< 100 nM	Cc1nn(C)c(C)c1-c1c(Cl)ccc2c(CCCOc3cccc4cc(F)ccc34)c(C(=O)O)n(CCN(C)CCN(C)C(=O)COc3cccc4c3CN(C3CCC(=O)NC3=O)C4=O)c12 (stereo not shown) [Compound 327, 6-Chloro-1-(2-((2-(2-((2-(2,6-dioxopiperidin-3-yl)-1-oxoisoindolin-4-yl)oxy)-N-methylacetamido)ethyl)(methyl)amino)ethyl)-3-(3-((6-fluoronaphthalen-1-yl)oxy)propyl)-7-(1,3,5-trimethyl-1H-pyrazol-4-yl)-1H-indole-2-carboxylic acid]		> 10000 nM
			< 10 nM	≤ 100 nM		Cc1nn(C)c(C)c1-c1c(Cl)ccc2c(CCCOc3cccc4cc(F)ccc34)c(C(=O)O)n(CCN3CCC(N4CCN(c5cc6c(cc5F)C(=O)N(C5CCC(=O)NC5=O)C6=O)CC4)CC3)c12 (stereo not shown) [Compound 336, 6-Chloro-1-[2-(4-{4-[2-(2,6-dioxopiperidin-3-yl)-6-fluoro-1,3-dioxo-2,3-dihydro-1H-isoindol-5-yl]piperazin-1-yl}piperidin-1-yl)ethyl]-3-{3-[(6-fluoronaphthalen-1-yl)oxy]propyl}-7-(1,3,5-trimethyl-1H-pyrazol-4-yl)-1H-indole-2-carboxylic acid]		> 10000 nM
			< 10 nM	≤ 316 nM		Cc1nn(C)c(C)c1-c1c(Cl)ccc2c(CCCOc3cccc4cc(F)ccc34)c(C(=O)O)n(CCN3CC(N4CCN(c5cc6c(cc5F)C(=O)N(C5CCC(=O)NC5=O)C6=O)CC4)C3)c12 (stereo not shown) [Compound 337, 6-Chloro-1-(2-(3-(4-(2-(2,6-dioxopiperidin-3-yl)-6-fluoro-1,3-dioxoisoindolin-5-yl)piperazin-1-yl)azetidin-1-yl)ethyl)-3-(3-((6-fluoronaphthalen-1-yl)oxy)propyl)-7-(1,3,5-trimethyl-1H-pyrazol-4-yl)-1H-indole-2-carboxylic acid]		> 10000 nM
			< 100 nM	≤ 316 nM		O=C1CCC(N2Cc3c(OCC(=O)N4CCN(CCn5c(C(=O)O)c(CCCOc6cccc7cc(F)ccc67)c6ccc(Cl)c(-c7cnn8cccnc78)c65)CC4)cccc3C2=O)C(=O)N1 (stereo not shown) [Compound 348, 6-Chloro-1-(2-(4-(2-((2-(2,6-dioxopiperidin-3-yl)-1-oxoisoindolin-4-yl)oxy)acetyl)piperazin-1-yl)ethyl)-3-(3-((6-fluoronaphthalen-1-yl)oxy)propyl)-7-(pyrazolo[1,5-a]pyrimidin-3-yl)-1H-indole-2-carboxylic acid]		> 10000 nM
